# Laboratory results: patent US20020170080A1, “Alpha-tocopherol transfer protein knockout animals” (The Regents of the University of California, priority 2000, published 2002)
# What was measured:
# femoral artery lesions = settings: human clinical trial; cited from earlier work
# [1] = test system: abdominal aortas or iliac arteries; settings: nonhuman primates; cited from earlier work
# Ttpa^−/− females = assay: Vitamin E supplementation of the diet and the fertility defect of Ttpa−/− female mice; format: in vivo, mouse; settings: vitamin E supplementation 1000 IU/kg of diet, data not shown
# From the text: Ttpa^−/− mice were generally healthy. Offspring from heterozygous intercrosses were born with the expected Mendelian distribution. Ttpa^−/− mice at 18 months of age had no obvious signs of neurological disease. In contrast, humans with α-TTP gene defects develop ataxia with vitamin E deficiency by the first decade of life (Sokol et al. (1988) J. Lab. Clin. Med. 111: 548-559; Ouahchi et al. (1995) Nat. Genet. 9: 141-145; Hentati et al. (1996) Ann. Neurol. 39: 295-300). […] Ttpa^−/− males had no obvious impairment in fertility.
# apo E^−/− mice = settings: apo E−/− mice fed a chow diet, vitamin E supplementation; cited from earlier work
Molecule,progression of femoral artery lesions (femoral artery lesions),lesion development in abdominal aortas or iliac arteries [1],effect on fertility defect (Ttpa^−/− females),levels of atherosclerosis (apo E^−/− mice)
CC(C)(Sc1cc(C(C)(C)C)c(O)c(C(C)(C)C)c1)Sc1cc(C(C)(C)C)c(O)c(C(C)(C)C)c1 [probucol],did not prevent progression of femoral artery lesions,did not prevent,,
vitamin E,,,completely reversed the fertility defect,decreased levels of atherosclerosis
